{
  "source": "PubChem BioAssay (NCI)",
  "test_in_all_cases": "NCI tumour cell line growth inhibition, 48 h",
  "key": {"U251 CNS": {"test_system": "U251 CNS"}, "RXF 393 renal": {"test_system": "RXF 393 renal"}, "HCC-2998 colon": {"test_system": "HCC-2998 colon"}, "COLO 205 colon": {"test_system": "COLO 205 colon"}, "HOP-92 NSCLC": {"test_system": "HOP-92 NSCLC"}, "SK-MEL-5 melanoma": {"test_system": "SK-MEL-5 melanoma"}, "OVCAR-8 ovarian": {"test_system": "OVCAR-8 ovarian"}, "SF-268 CNS": {"test_system": "SF-268 CNS"}, "TK-10 renal": {"test_system": "TK-10 renal"}, "HCT-15 colon": {"test_system": "HCT-15 colon"}, "UO-31 renal": {"test_system": "UO-31 renal"}, "HOP-62 NSCLC": {"test_system": "HOP-62 NSCLC"}, "SW-620 colon": {"test_system": "SW-620 colon"}, "SK-MEL-2 melanoma": {"test_system": "SK-MEL-2 melanoma"}, "OVCAR-3 ovarian": {"test_system": "OVCAR-3 ovarian"}, "CCRF-CEM leukemia": {"test_system": "CCRF-CEM leukemia"}, "NCI-H23 lung": {"test_system": "NCI-H23 lung"}, "LOX IMVI melanoma": {"test_system": "LOX IMVI melanoma"}, "NCI-H522 lung": {"test_system": "NCI-H522 lung"}, "ACHN renal": {"test_system": "ACHN renal"}, "T-47D breast": {"test_system": "T-47D breast"}, "BT-549 breast": {"test_system": "BT-549 breast"}, "SNB-19 CNS": {"test_system": "SNB-19 CNS"}, "M14 melanoma": {"test_system": "M14 melanoma"}, "HL-60(TB) leukemia": {"test_system": "HL-60(TB) leukemia"}, "UACC-62 melanoma": {"test_system": "UACC-62 melanoma"}, "NCI-H226 lung": {"test_system": "NCI-H226 lung"}, "SR leukemia": {"test_system": "SR leukemia"}, "IGROV1 ovarian": {"test_system": "IGROV1 ovarian"}},
  "note": "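In this assay, cells in 96-well plates receive the compound at five concentrations for 48 hours. Endpoints are linearly interpolated between the surrounding concentrations. GI50 = concentration required for 50% inhibition of growth. The concentration for full growth arrest is given as TGI.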",
  "data": [
    {"smiles": "O=C(O)C(/C=C/c1ccco1)=N\\Nc1nc(-c2ccc(Cl)cc2)cs1", "values": [
      {"measurement": "GI50", "setting": "U251 CNS", "value": 4.59, "unit": "µM"},
      {"measurement": "TGI", "setting": "U251 CNS", "value": "> 50", "unit": "µM"},
      {"measurement": "GI50", "setting": "RXF 393 renal", "value": 10.4, "unit": "µM"},
      {"measurement": "TGI", "setting": "RXF 393 renal", "value": 28.4, "unit": "µM"},
      {"measurement": "GI50", "setting": "HCC-2998 colon", "value": 14.2, "unit": "µM"},
      {"measurement": "TGI", "setting": "HCC-2998 colon", "value": "> 50", "unit": "µM"},
      {"measurement": "GI50", "setting": "COLO 205 colon", "value": 12.5, "unit": "µM"},
      {"measurement": "TGI", "setting": "COLO 205 colon", "value": 45.8, "unit": "µM"},
      {"measurement": "GI50", "setting": "HOP-92 NSCLC", "value": 10.1, "unit": "µM"},
      {"measurement": "TGI", "setting": "HOP-92 NSCLC", "value": 49.4, "unit": "µM"},
      {"measurement": "GI50", "setting": "SK-MEL-5 melanoma", "value": 14.8, "unit": "µM"},
      {"measurement": "TGI", "setting": "SK-MEL-5 melanoma", "value": "> 50", "unit": "µM"},
      {"measurement": "GI50", "setting": "OVCAR-8 ovarian", "value": 6.93, "unit": "µM"},
      {"measurement": "TGI", "setting": "OVCAR-8 ovarian", "value": "> 50", "unit": "µM"},
      {"measurement": "GI50", "setting": "SF-268 CNS", "value": 11.1, "unit": "µM"},
      {"measurement": "TGI", "setting": "SF-268 CNS", "value": "> 50", "unit": "µM"},
      {"measurement": "GI50", "setting": "TK-10 renal", "value": 31.6, "unit": "µM"},
      {"measurement": "TGI", "setting": "TK-10 renal", "value": "> 50", "unit": "µM"},
      {"measurement": "GI50", "setting": "HCT-15 colon", "value": 9.27, "unit": "µM"},
      {"measurement": "TGI", "setting": "HCT-15 colon", "value": "> 50", "unit": "µM"},
      {"measurement": "GI50", "setting": "UO-31 renal", "value": 12.9, "unit": "µM"},
      {"measurement": "TGI", "setting": "UO-31 renal", "value": "> 50", "unit": "µM"},
      {"measurement": "GI50", "setting": "HOP-62 NSCLC", "value": 16.5, "unit": "µM"},
      {"measurement": "TGI", "setting": "HOP-62 NSCLC", "value": "> 50", "unit": "µM"},
      {"measurement": "GI50", "setting": "SW-620 colon", "value": 22.5, "unit": "µM"},
      {"measurement": "TGI", "setting": "SW-620 colon", "value": "> 50", "unit": "µM"},
      {"measurement": "GI50", "setting": "SK-MEL-2 melanoma", "value": 9.45, "unit": "µM"},
      {"measurement": "TGI", "setting": "SK-MEL-2 melanoma", "value": 24.8, "unit": "µM"},
      {"measurement": "GI50", "setting": "OVCAR-3 ovarian", "value": 9.51, "unit": "µM"},
      {"measurement": "TGI", "setting": "OVCAR-3 ovarian", "value": "> 50", "unit": "µM"},
      {"measurement": "GI50", "setting": "CCRF-CEM leukemia", "value": 3.26, "unit": "µM"},
      {"measurement": "TGI", "setting": "CCRF-CEM leukemia", "value": "> 50", "unit": "µM"},
      {"measurement": "GI50", "setting": "NCI-H23 lung", "value": 15.2, "unit": "µM"},
      {"measurement": "TGI", "setting": "NCI-H23 lung", "value": "> 50", "unit": "µM"},
      {"measurement": "GI50", "setting": "LOX IMVI melanoma", "value": 6.62, "unit": "µM"},
      {"measurement": "TGI", "setting": "LOX IMVI melanoma", "value": "> 50", "unit": "µM"},
      {"measurement": "GI50", "setting": "NCI-H522 lung", "value": 7.61, "unit": "µM"},
      {"measurement": "TGI", "setting": "NCI-H522 lung", "value": 41.3, "unit": "µM"},
      {"measurement": "GI50", "setting": "ACHN renal", "value": 14.6, "unit": "µM"},
      {"measurement": "TGI", "setting": "ACHN renal", "value": "> 50", "unit": "µM"},
      {"measurement": "GI50", "setting": "T-47D breast", "value": 17.3, "unit": "µM"},
      {"measurement": "TGI", "setting": "T-47D breast", "value": "> 50", "unit": "µM"},
      {"measurement": "GI50", "setting": "BT-549 breast", "value": 16.9, "unit": "µM"},
      {"measurement": "TGI", "setting": "BT-549 breast", "value": "> 50", "unit": "µM"},
      {"measurement": "GI50", "setting": "SNB-19 CNS", "value": 9.64, "unit": "µM"},
      {"measurement": "TGI", "setting": "SNB-19 CNS", "value": "> 50", "unit": "µM"},
      {"measurement": "GI50", "setting": "M14 melanoma", "value": 12.7, "unit": "µM"},
      {"measurement": "TGI", "setting": "M14 melanoma", "value": "> 50", "unit": "µM"},
      {"measurement": "GI50", "setting": "HL-60(TB) leukemia", "value": 17.1, "unit": "µM"},
      {"measurement": "TGI", "setting": "HL-60(TB) leukemia", "value": "> 50", "unit": "µM"},
      {"measurement": "GI50", "setting": "UACC-62 melanoma", "value": 7.79, "unit": "µM"},
      {"measurement": "TGI", "setting": "UACC-62 melanoma", "value": 17.7, "unit": "µM"},
      {"measurement": "GI50", "setting": "NCI-H226 lung", "value": 9.41, "unit": "µM"},
      {"measurement": "TGI", "setting": "NCI-H226 lung", "value": 25.4, "unit": "µM"},
      {"measurement": "GI50", "setting": "SR leukemia", "value": 4.83, "unit": "µM"},
      {"measurement": "TGI", "setting": "SR leukemia", "value": "> 50", "unit": "µM"},
      {"measurement": "GI50", "setting": "IGROV1 ovarian", "value": 7.93, "unit": "µM"}
    ]}
  ]
}
